The record followed here is US20240166627A1, “Terpyridinedione compound or salt thereof, and preparation method and application thereof” (SHENZHEN SALUBRIS PHARMACEUTICALS CO., LTD., priority 2021, published 2024).

The nature of data set [1]: Pharmacokinetic experiment in Beagle dogs (IV and PO). Format: in vivo. The following applies: male, dog, plasma, PO 5 mg/kg. The source says: Polyethylene glycol 400 (batch number: GORKREUT, Saen Chemical Technology (Shanghai) Co., Ltd.); DMSO (batch number: 20200319, GHTECH (Guangdong) Co., Ltd.); and normal saline (batch number: C20052604, Jiangxi Kelun Pharmaceutical Co., Ltd.). An LC-MS instrument (Thermo Fisher Ultimate 3000 UPLC, TSQ QUANTUM ULTRA TSQ Quantum GC).
5 male Beagle dogs with weights being 5 kg to 7 kg, purchased from Beijing Mars Biotechnology Co., Ltd. […]
After the above mixture is given to the dogs through intragastric administration (n=3) or intravenous administration (n=2), about 1 mL of blood is collected from the forelimb or hindlimb vein with a scalp needle, respectively, at 5 min (intravenous administration only), 15 min, 30 min, 1 h, 2 h, 4 h, 6 h, 8 h, 24 h to put into blood collection tubes containing EDTA-K2 anticoagulant; centrifugation is performed for 10 min at 4000 rpm to separate plasma; and then the tubes are stored at −80° C. for testing.
A certain amount of a test sample is accurately weighted and dissolved with DMSO to 2 mg/mL, as a stock solution. The stock solution is diluted to 30000, 10000, 3000, 1000, 300, 100, 50, 30, and 10 ng/mL by using acetonitrile:water (1:1), to obtain standard curve working solutions. 5 μL of the working solution is added to 45 μL of blank canine plasma; and well mixing is performed through vortex, to prepare into standard curve samples equivalent to plasma concentrations of 3000, 1000, 300, 100, 30, 10, 5, 3, and 1 ng/mL. 30 μL of the standard curve sample and the collected plasma sample (plasma collected at 5 min, 15 min, and 30 min of intravenous administration is diluted 5-fold) are added to 150 μL of a propranolol acetonitrile solution (internal standard, 50 ng/mL) to precipitate protein, then 100 μL of water is added to well mix through vortex; centrifugation is performed for 5 min at 4000 rpm; and supernatant is taken for LC-MS analysis. LC-MS detection conditions include the following.
Chromatographic column: Waters ACQUITY™ PREMIER HSS T3, 50*2.1 mm, 1.8 μm.
Mobile phase A: water (0.1% formic acid); mobile phase B: acetonitrile; flow rate: 0.5 mL/min; and gradient elution is shown in Table 3 below.
After LC-MS detection of blood drug concentration, and a non-compartment model of WinNonlin 6.1 software is adopted to calculate pharmacokinetic parameters of beagle dogs after administration.

The target of a further data set is p38α (Homo sapiens, UniProt Q16539). The data set can be described thus: p38α kinase screening experiment (ADP-Glo). Format: biochemical. As to the method:
A certain amount of the compound is weighed, prepared into a 10/50 mM mother solution with DMSO, diluted 3 folds with DMSO, and diluted to 10 concentration points as a compound working solution.
50 nL of the diluted compound working solution is transferred to each well of a reaction plate (784075, Greiner) with Echo 655, then 2.5 μL (4 ng/μL) of a p38α kinase solution is added; after 10 minutes at room temperature, 2.5 μL of a mixed solution of a kinase substrate (0.2 mg/mL) and ATP (150 μM) is added, for reaction for 60 min at room temperature; and 4 μL of an ADP Glo reagent is added, for incubation for 40 min at room temperature. 8 μL of a kinase detection reagent is added, for incubation for 40 min at room temperature; and finally a light-emitting signal is read on Envision 2104.
Background: ADP-Glo turns the ADP formed in a reaction into a luminescent signal.

Sequence of p38α (Q16539 whole entry): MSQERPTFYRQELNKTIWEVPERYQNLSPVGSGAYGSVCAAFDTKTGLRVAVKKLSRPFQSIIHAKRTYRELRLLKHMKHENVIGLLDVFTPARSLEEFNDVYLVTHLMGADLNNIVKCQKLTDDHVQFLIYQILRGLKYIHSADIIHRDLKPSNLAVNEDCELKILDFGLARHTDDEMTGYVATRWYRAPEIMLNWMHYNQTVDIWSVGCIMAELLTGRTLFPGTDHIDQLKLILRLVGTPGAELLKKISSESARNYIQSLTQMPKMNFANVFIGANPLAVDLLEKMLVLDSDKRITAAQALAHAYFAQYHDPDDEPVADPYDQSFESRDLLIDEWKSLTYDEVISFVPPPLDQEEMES

In data set [1], `Cc1cnc(-n2cccc(C(C)(C)O)c2=O)cc1-n1c(C)cc(OCc2ncc(F)cc2F)c(Cl)c1=O` [Comparative example 1] yielded an AUC(0-t) of 32900 ng·h/mL and a Cmax of 5550 ng/mL. On p38α (ATP 150 μM in the substrate/ATP mix, 60 min, read-out: IC50 value that the compound inhibits p38α), the IC50 stood at 578 nM. For the same molecule, the “Activity multiple relative to p38α/(p38α/MK2 complex)” value on p38α (ratio of p38α IC50 to p38α/MK2 complex IC50 of Embodiment 50) came out at 222.

A word on the AUC(0-t): it is exposure summed from dosing to a finite time, without extrapolation to infinity. A higher AUC(0-t) goes with high exposure. What is called Cmax is the peak of the concentration-time curve. As a reminder, the IC50 is the point on the concentration scale where inhibition reaches its midpoint.
